# Source: ChEMBL document CHEMBL4627246, “Pyroglutamide-Based P2X7 Receptor Antagonists Targeting Inflammatory Bowel Disease” (J Med Chem, 2020)
# Test system: T47D
# Experiment: Cytotoxicity against human T47D cells assessed as effect on cell growth at 10 uM incubated for 48 hrs by sulforhodamine B assay
# Type: cell-based
# Settings: not given
row,SMILES,Activity
1,COC(=O)[C@@H]1C/C(=C\NCc2ccc(Cl)cc2Cl)C(=O)N1C(=O)OC,Non-Toxic
2,CCCCCCN1C(=O)[C@@H]2CCC(=O)N2C1N(C)C (stereo not given in full),Non-Toxic
3,O=C(NCc1ccc(Cl)cc1Cl)[C@@H]1CCC(=O)N1C(c1ccccc1)c1ccccc1,Non-Toxic
4,O=C1CCCC(C(=O)NCc2ccc(Cl)cc2Cl)N1 (stereo not given),Non-Toxic

# Test system: SNB-75
# Experiment: Cytotoxicity against human SNB75 cells assessed as effect on cell growth at 10 uM incubated for 48 hrs by sulforhodamine B assay
# Type: cell-based
# Settings: snb-75, 48 h
row,SMILES,Activity
1,COC(=O)[C@@H]1C/C(=C\NCc2ccc(Cl)cc2Cl)C(=O)N1C(=O)OC,Non-Toxic
2,CCCCCCN1C(=O)[C@@H]2CCC(=O)N2C1N(C)C (stereo not given in full),Non-Toxic
3,O=C(NCc1ccc(Cl)cc1Cl)[C@@H]1CCC(=O)N1C(c1ccccc1)c1ccccc1,Non-Toxic
4,O=C1CCCC(C(=O)NCc2ccc(Cl)cc2Cl)N1 (stereo not given),Non-Toxic

# Test system: NCI-H322M
# Experiment: Cytotoxicity against human NCI-H322M cells assessed as effect on cell growth at 10 uM incubated for 48 hrs by sulforhodamine B assay
# Type: cell-based
# Settings: not given
row,SMILES,Activity
1,COC(=O)[C@@H]1C/C(=C\NCc2ccc(Cl)cc2Cl)C(=O)N1C(=O)OC,Non-Toxic
2,CCCCCCN1C(=O)[C@@H]2CCC(=O)N2C1N(C)C (stereo not given in full),Non-Toxic
3,O=C(NCc1ccc(Cl)cc1Cl)[C@@H]1CCC(=O)N1C(c1ccccc1)c1ccccc1,Non-Toxic
4,O=C1CCCC(C(=O)NCc2ccc(Cl)cc2Cl)N1 (stereo not given),Non-Toxic

# Test system: IGROV-1
# Experiment: Cytotoxicity against human IGROV1 cells assessed as effect on cell growth at 10 uM incubated for 48 hrs by sulforhodamine B assay
# Type: cell-based
# Settings: igrov-1, 48 h
row,SMILES,Activity
1,COC(=O)[C@@H]1C/C(=C\NCc2ccc(Cl)cc2Cl)C(=O)N1C(=O)OC,Non-Toxic
2,CCCCCCN1C(=O)[C@@H]2CCC(=O)N2C1N(C)C (stereo not given in full),Non-Toxic
3,O=C(NCc1ccc(Cl)cc1Cl)[C@@H]1CCC(=O)N1C(c1ccccc1)c1ccccc1,Non-Toxic
4,O=C1CCCC(C(=O)NCc2ccc(Cl)cc2Cl)N1 (stereo not given),Non-Toxic

# Test system: SNB-19
# Experiment: Cytotoxicity against human SNB19 cells assessed as effect on cell growth at 10 uM incubated for 48 hrs by sulforhodamine B assay
# Type: cell-based
# Settings: snb-19, 48 h
row,SMILES,Activity
1,COC(=O)[C@@H]1C/C(=C\NCc2ccc(Cl)cc2Cl)C(=O)N1C(=O)OC,Non-Toxic
2,CCCCCCN1C(=O)[C@@H]2CCC(=O)N2C1N(C)C (stereo not given in full),Non-Toxic
3,O=C(NCc1ccc(Cl)cc1Cl)[C@@H]1CCC(=O)N1C(c1ccccc1)c1ccccc1,Non-Toxic
4,O=C1CCCC(C(=O)NCc2ccc(Cl)cc2Cl)N1 (stereo not given),Non-Toxic

# Test system: HCT-116
# Experiment: Cytotoxicity against human HCT116 cells assessed as effect on cell growth at 10 uM incubated for 48 hrs by sulforhodamine B assay
# Type: cell-based
# Settings: hct-116, 48 h
row,SMILES,Activity
1,COC(=O)[C@@H]1C/C(=C\NCc2ccc(Cl)cc2Cl)C(=O)N1C(=O)OC,Non-Toxic
2,CCCCCCN1C(=O)[C@@H]2CCC(=O)N2C1N(C)C (stereo not given in full),Non-Toxic
3,O=C(NCc1ccc(Cl)cc1Cl)[C@@H]1CCC(=O)N1C(c1ccccc1)c1ccccc1,Non-Toxic
4,O=C1CCCC(C(=O)NCc2ccc(Cl)cc2Cl)N1 (stereo not given),Non-Toxic

# Test system: U-251
# Experiment: Cytotoxicity against human U251 cells assessed as effect on cell growth at 10 uM incubated for 48 hrs by sulforhodamine B assay
# Type: cell-based
# Settings: u-251, 48 h
row,SMILES,Activity
1,COC(=O)[C@@H]1C/C(=C\NCc2ccc(Cl)cc2Cl)C(=O)N1C(=O)OC,Non-Toxic
2,CCCCCCN1C(=O)[C@@H]2CCC(=O)N2C1N(C)C (stereo not given in full),Non-Toxic
3,O=C(NCc1ccc(Cl)cc1Cl)[C@@H]1CCC(=O)N1C(c1ccccc1)c1ccccc1,Non-Toxic
4,O=C1CCCC(C(=O)NCc2ccc(Cl)cc2Cl)N1 (stereo not given),Non-Toxic

# Test system: HCC 2998
# Experiment: Cytotoxicity against human HCC2998 cells assessed as effect on cell growth at 10 uM incubated for 48 hrs by sulforhodamine B assay
# Type: cell-based
# Settings: hcc 2998, 48 h
row,SMILES,Activity
1,COC(=O)[C@@H]1C/C(=C\NCc2ccc(Cl)cc2Cl)C(=O)N1C(=O)OC,Non-Toxic
2,CCCCCCN1C(=O)[C@@H]2CCC(=O)N2C1N(C)C (stereo not given in full),Non-Toxic
3,O=C(NCc1ccc(Cl)cc1Cl)[C@@H]1CCC(=O)N1C(c1ccccc1)c1ccccc1,Non-Toxic
4,O=C1CCCC(C(=O)NCc2ccc(Cl)cc2Cl)N1 (stereo not given),Non-Toxic

# Test system: TK-10
# Experiment: Cytotoxicity against human TK10 cells assessed as effect on cell growth at 10 uM incubated for 48 hrs by sulforhodamine B assay
# Type: cell-based
# Settings: tk-10, 48 h
row,SMILES,Activity
1,COC(=O)[C@@H]1C/C(=C\NCc2ccc(Cl)cc2Cl)C(=O)N1C(=O)OC,Non-Toxic
2,CCCCCCN1C(=O)[C@@H]2CCC(=O)N2C1N(C)C (stereo not given in full),Non-Toxic
3,O=C(NCc1ccc(Cl)cc1Cl)[C@@H]1CCC(=O)N1C(c1ccccc1)c1ccccc1,Non-Toxic
4,O=C1CCCC(C(=O)NCc2ccc(Cl)cc2Cl)N1 (stereo not given),Non-Toxic

# Test system: HT-29
# Experiment: Cytotoxicity against human HT-29 cells assessed as effect on cell growth at 10 uM incubated for 48 hrs by sulforhodamine B assay
# Type: cell-based
# Settings: ht-29, 48 h
row,SMILES,Activity
1,COC(=O)[C@@H]1C/C(=C\NCc2ccc(Cl)cc2Cl)C(=O)N1C(=O)OC,Non-Toxic
2,CCCCCCN1C(=O)[C@@H]2CCC(=O)N2C1N(C)C (stereo not given in full),Non-Toxic
3,O=C(NCc1ccc(Cl)cc1Cl)[C@@H]1CCC(=O)N1C(c1ccccc1)c1ccccc1,Non-Toxic
4,O=C1CCCC(C(=O)NCc2ccc(Cl)cc2Cl)N1 (stereo not given),Non-Toxic

# Test system: HOP-92
# Experiment: Cytotoxicity against human HOP92 cells assessed as effect on cell growth at 10 uM incubated for 48 hrs by sulforhodamine B assay
# Type: cell-based
# Settings: hop-92, 48 h
row,SMILES,Activity
1,COC(=O)[C@@H]1C/C(=C\NCc2ccc(Cl)cc2Cl)C(=O)N1C(=O)OC,Non-Toxic
2,CCCCCCN1C(=O)[C@@H]2CCC(=O)N2C1N(C)C (stereo not given in full),Non-Toxic
3,O=C(NCc1ccc(Cl)cc1Cl)[C@@H]1CCC(=O)N1C(c1ccccc1)c1ccccc1,Non-Toxic
4,O=C1CCCC(C(=O)NCc2ccc(Cl)cc2Cl)N1 (stereo not given),Non-Toxic

# Test system: NCI-H522
# Experiment: Cytotoxicity against human NCI-H522 cells assessed as effect on cell growth at 10 uM incubated for 48 hrs by sulforhodamine B assay
# Type: cell-based
# Settings: nci-h522, 48 h
row,SMILES,Activity
1,COC(=O)[C@@H]1C/C(=C\NCc2ccc(Cl)cc2Cl)C(=O)N1C(=O)OC,Non-Toxic
2,CCCCCCN1C(=O)[C@@H]2CCC(=O)N2C1N(C)C (stereo not given in full),Non-Toxic
3,O=C(NCc1ccc(Cl)cc1Cl)[C@@H]1CCC(=O)N1C(c1ccccc1)c1ccccc1,Non-Toxic
4,O=C1CCCC(C(=O)NCc2ccc(Cl)cc2Cl)N1 (stereo not given),Non-Toxic

# Test system: Malme-3M
# Experiment: Cytotoxicity against human MALME-3M cells assessed as effect on cell growth at 10 uM incubated for 48 hrs by sulforhodamine B assay
# Type: cell-based
# Settings: not given
row,SMILES,Activity
1,COC(=O)[C@@H]1C/C(=C\NCc2ccc(Cl)cc2Cl)C(=O)N1C(=O)OC,Non-Toxic
2,CCCCCCN1C(=O)[C@@H]2CCC(=O)N2C1N(C)C (stereo not given in full),Non-Toxic
3,O=C(NCc1ccc(Cl)cc1Cl)[C@@H]1CCC(=O)N1C(c1ccccc1)c1ccccc1,Non-Toxic
4,O=C1CCCC(C(=O)NCc2ccc(Cl)cc2Cl)N1 (stereo not given),Non-Toxic

# Test system: UACC-62
# Experiment: Cytotoxicity against human UACC62 cells assessed as effect on cell growth at 10 uM incubated for 48 hrs by sulforhodamine B assay
# Type: cell-based
# Settings: uacc-62, 48 h
row,SMILES,Activity
1,COC(=O)[C@@H]1C/C(=C\NCc2ccc(Cl)cc2Cl)C(=O)N1C(=O)OC,Non-Toxic
2,CCCCCCN1C(=O)[C@@H]2CCC(=O)N2C1N(C)C (stereo not given in full),Non-Toxic
3,O=C(NCc1ccc(Cl)cc1Cl)[C@@H]1CCC(=O)N1C(c1ccccc1)c1ccccc1,Non-Toxic
4,O=C1CCCC(C(=O)NCc2ccc(Cl)cc2Cl)N1 (stereo not given),Non-Toxic

# Test system: MDA-MB-468
# Experiment: Cytotoxicity against human MDA-MB-468 cells assessed as effect on cell growth at 10 uM incubated for 48 hrs by sulforhodamine B assay
# Type: cell-based
# Settings: mda-mb-468, 48 h
row,SMILES,Activity
1,COC(=O)[C@@H]1C/C(=C\NCc2ccc(Cl)cc2Cl)C(=O)N1C(=O)OC,Non-Toxic
2,CCCCCCN1C(=O)[C@@H]2CCC(=O)N2C1N(C)C (stereo not given in full),Non-Toxic
3,O=C(NCc1ccc(Cl)cc1Cl)[C@@H]1CCC(=O)N1C(c1ccccc1)c1ccccc1,Non-Toxic
4,O=C1CCCC(C(=O)NCc2ccc(Cl)cc2Cl)N1 (stereo not given),Non-Toxic

# Test system: COLO 205
# Experiment: Cytotoxicity against human COLO205 cells assessed as effect on cell growth at 10 uM incubated for 48 hrs by sulforhodamine B assay
# Type: cell-based
# Settings: colo 205, 48 h
row,SMILES,Activity
1,COC(=O)[C@@H]1C/C(=C\NCc2ccc(Cl)cc2Cl)C(=O)N1C(=O)OC,Non-Toxic
2,CCCCCCN1C(=O)[C@@H]2CCC(=O)N2C1N(C)C (stereo not given in full),Non-Toxic
3,O=C(NCc1ccc(Cl)cc1Cl)[C@@H]1CCC(=O)N1C(c1ccccc1)c1ccccc1,Non-Toxic
4,O=C1CCCC(C(=O)NCc2ccc(Cl)cc2Cl)N1 (stereo not given),Non-Toxic

# Test system: PC-3
# Experiment: Cytotoxicity against human PC3 cells assessed as effect on cell growth at 10 uM incubated for 48 hrs by sulforhodamine B assay
# Type: cell-based
# Settings: pc-3, 48 h
row,SMILES,Activity
1,COC(=O)[C@@H]1C/C(=C\NCc2ccc(Cl)cc2Cl)C(=O)N1C(=O)OC,Non-Toxic
2,CCCCCCN1C(=O)[C@@H]2CCC(=O)N2C1N(C)C (stereo not given in full),Non-Toxic
3,O=C(NCc1ccc(Cl)cc1Cl)[C@@H]1CCC(=O)N1C(c1ccccc1)c1ccccc1,Non-Toxic
4,O=C1CCCC(C(=O)NCc2ccc(Cl)cc2Cl)N1 (stereo not given),Non-Toxic

# Test system: NCI-H23
# Experiment: Cytotoxicity against human NCI-H23 cells assessed as effect on cell growth at 10 uM incubated for 48 hrs by sulforhodamine B assay
# Type: cell-based
# Settings: nci-h23, 48 h
row,SMILES,Activity
1,COC(=O)[C@@H]1C/C(=C\NCc2ccc(Cl)cc2Cl)C(=O)N1C(=O)OC,Non-Toxic
2,CCCCCCN1C(=O)[C@@H]2CCC(=O)N2C1N(C)C (stereo not given in full),Non-Toxic
3,O=C(NCc1ccc(Cl)cc1Cl)[C@@H]1CCC(=O)N1C(c1ccccc1)c1ccccc1,Non-Toxic
4,O=C1CCCC(C(=O)NCc2ccc(Cl)cc2Cl)N1 (stereo not given),Non-Toxic

# Test system: NCI/ADR-RES
# Experiment: Cytotoxicity against human NCI/ADR-RES cells assessed as effect on cell growth at 10 uM incubated for 48 hrs by sulforhodamine B assay
# Type: cell-based
# Settings: not given
row,SMILES,Activity
1,COC(=O)[C@@H]1C/C(=C\NCc2ccc(Cl)cc2Cl)C(=O)N1C(=O)OC,Non-Toxic
2,CCCCCCN1C(=O)[C@@H]2CCC(=O)N2C1N(C)C (stereo not given in full),Non-Toxic
3,O=C(NCc1ccc(Cl)cc1Cl)[C@@H]1CCC(=O)N1C(c1ccccc1)c1ccccc1,Non-Toxic
4,O=C1CCCC(C(=O)NCc2ccc(Cl)cc2Cl)N1 (stereo not given),Non-Toxic

# Test system: OVCAR-8
# Experiment: Cytotoxicity against human OVCAR8 cells assessed as effect on cell growth at 10 uM incubated for 48 hrs by sulforhodamine B assay
# Type: cell-based
# Settings: ovcar-8, 48 h
row,SMILES,Activity
1,COC(=O)[C@@H]1C/C(=C\NCc2ccc(Cl)cc2Cl)C(=O)N1C(=O)OC,Non-Toxic
2,CCCCCCN1C(=O)[C@@H]2CCC(=O)N2C1N(C)C (stereo not given in full),Non-Toxic
3,O=C(NCc1ccc(Cl)cc1Cl)[C@@H]1CCC(=O)N1C(c1ccccc1)c1ccccc1,Non-Toxic
4,O=C1CCCC(C(=O)NCc2ccc(Cl)cc2Cl)N1 (stereo not given),Non-Toxic
